Test results taken from ChEMBL document CHEMBL3046331, “Ethyl 4-[(1-substituted indol-2-yl)methoxy]benzoates and indoline derivatives: Anti-juvenile hormone and juvenile hormone activities” (2009).
Activity calls are given as the source filed them. The calls are words filed in the database; no cut-off is given here.

Experiments:
Bombyx mori [1] = test: Antijuvenile hormone activity in third-instar larvae of Bombyx mori assessed as induction of precocious metamorphosis at 10 ug/larvae topically applied to the dorsal abdomen; format: functional
Bombyx mori [2] = test: Juvenile hormone activity in allatectomized fourth-instar larvae of Bombyx mori assessed as number of larvae transformed into larval-pupal intermediate at 40 ug/larvae topically applied to the dorsal abdomen; format: functional, organism-based
Bombyx mori [3] = test: Antijuvenile hormone activity in third-instar larvae of Bombyx mori assessed as induction of precocious metamorphosis at 1 ug/larvae topically applied to the dorsal abdomen; format: functional
Bombyx mori [4] = test: Juvenile hormone activity in allatectomized fourth-instar larvae of Bombyx mori assessed as number of larvae transformed into fifth instar larvae at 40 ug/larvae topically applied to the dorsal abdomen; format: functional, organism-based
Bombyx mori [5] = test: Antijuvenile hormone activity in third-instar larvae of Bombyx mori assessed as induction of precocious metamorphosis at 40 ug/larvae topically applied to the dorsal abdomen; format: functional
Bombyx mori [6] = test: Juvenile hormone activity in allatectomized fourth-instar larvae of Bombyx mori assessed as number of larvae transformed into precocious pupa at 40 ug/larvae topically applied to the dorsal abdomen; format: functional, organism-based
Bombyx mori [7] = test: Juvenile hormone activity in allatectomized fourth-instar larvae of Bombyx mori assessed as number of larvae transformed into precocious pupa at 1 ug/larvae topically applied to the dorsal abdomen; format: functional, organism-based
Bombyx mori [8] = test: Juvenile hormone activity in allatectomized fourth-instar larvae of Bombyx mori assessed as number of larvae transformed into larval-pupal intermediate at 1 ug/larvae topically applied to the dorsal abdomen; format: functional, organism-based
Bombyx mori [9] = test: Juvenile hormone activity in allatectomized fourth-instar larvae of Bombyx mori assessed as number of larvae transformed into fifth instar larvae at 1 ug/larvae topically applied to the dorsal abdomen; format: functional, organism-based

| SMILES | Activity (Bombyx mori [1]) | Activity (Bombyx mori [2]) | Activity (Bombyx mori [3]) | Activity (Bombyx mori [4]) | Activity (Bombyx mori [5]) | Activity (Bombyx mori [6]) | Activity (Bombyx mori [7]) | Activity (Bombyx mori [8]) | Activity (Bombyx mori [9]) |
| --- | --- | --- | --- | --- | --- | --- | --- | --- | --- |
| CCCCN1c2ccccc2C[C@H]1COc1ccc(C(=O)OCC)cc1 | 65% | inactive | 5% | inactive | 82% | Active |  |  |  |
| CCOC(=O)c1ccc(OCc2cc3ccccc3n2CC)cc1 | 5% |  | 5% |  | 5% |  |  |  |  |
| CCOC(=O)c1ccc(OC[C@@H]2Cc3ccccc3N2Cc2ccccc2)cc1 | 25% |  | 5% |  | 28% |  |  |  |  |
| CCCn1c(COc2ccc(C(=O)OCC)cc2)cc2ccccc21 | 95% |  | 67% |  | 90% |  |  |  |  |
| CCOC(=O)c1ccc(OCc2cc3ccccc3n2Cc2ccccc2)cc1 | 73% | inactive | 73% |  | 84% |  |  |  |  |
| COC(C)(C)CCC[C@H](C)C/C=C/C(C)=C/C(=O)OC(C)C |  |  |  |  |  |  | inactive | inactive | Active |
| CCCCn1c(COc2ccc(C(=O)OCC)cc2)cc2ccccc21 | 93% | inactive | 65% | Active | 94% | inactive |  |  |  |
| CCCCC(COc1ccc(C(=O)OCC)cc1)Cc1ccccc1 (stereo unspecified) | 34% |  | 90% |  | 12% |  |  |  |  |
